# In patent US7109341B2, “Therapeutic amides” (Wayne State University, priority 2002, dated 2006):
# Several values for one entry are separate records, joined by “and”; a condition that tells them apart may be missing. Equal entries are not always repeated. Entries after “also recorded” stand apart in the source; their conditions may differ. Where two headings read alike, the source gives them in different places.
# How the values were obtained:
# [1] = system: Pancreatic Ductal Adenocarcinoma 03;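 further: mice carrying bilateral subcutaneous tumors, with tumor weight estimated from two-dimensional caliper readings taken twice a week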
# Source text: (§1) Pancreatic ductal adenocarcinoma-03, mammary adenocarcinoma-16/C, mammary adenocarcinoma-17/Adr, and human melanoma LOX were used in the studies. Tumors were maintained in the mouse strain of origin (C57B1/6 for Panc-03 and C3H for the mammary tumors). Balb/c SCID mice (B and T cell deficient) were used for tumor maintenance and chemotherapy trials involving the human melanoma LOX. Tumors were transplanted into the appropriate F1 hybrid (B6D2F1=C57B 1/6 female× DBA/2 male) or the strain of origin for the chemotherapy trials. Individual mouse body weights for each experiment were within 5 grams, and all mice were over 17 grams at the start of therapy. The mice were supplied food and water ad libitum.
# (§2) Animals were pooled, implanted subcutaneously with 30 to 60 mg tumor fragments by a 12 gauge trocar on day 0, and again pooled before unselective distribution to the various treatment and control groups. For early stage treatment, chemotherapy was started within 1 to 3 days after tumor implantation while the number of cells was relatively small (10^7 to 10^8 cells). For upstaged or advanced staged trials, the tumors were allowed to grow for five or more days before treatment was started. Tumors were measured with a caliper twice weekly. […] Tumor weights are estimated from two-dimensional measurements:
# (§3) Tumor weight (in mg)=(a×b^2)/2, where a and b are the tumor length and width in (mm), respectively.
# a) Tumor growth delay (T−C value), where T is the median time (in days) required for the treatment group tumors to reach a predetermined size (e.g., 1,000 mg), and C is the median time (in days) for the control group tumors to reach the same size. Tumor-free survivors were are excluded from these calculations (cures are tabulated separately). This value is an important criterion of anti-tumor effectiveness because it allows the quantification of tumor cell kill.
# (§4) b) Calculation of tumor cell kill for subcutaneously (SC) growing tumors. […] The conversion of the T−C values to log10 cell kill is possible because the Td of tumors re-growing post treatment (Rx) approximates the Td values of the tumors in untreated control mice.
# (§5) It should be noted that an activity rating of +++ to ++++ is needed to effect partial regression (PR) or complete regression (CR) of 100 to 300 mg size masses of most transplanted solid tumors of mice. Thus, an activity rating of + or ++ would not be scored as active by usual clinical criteria. A PR is a reduction in tumor mass to less than 50% of pretreatment size. A CR is a reduction in tumor mass to below palpable size (i.e., reduction to zero detectable mass).
# (§6) The T/C value in percent is an indication of anti-tumor effectiveness: A T/C=0% means no tumor growth. A T/C=100% means no anti-tumor activity, i.e., the treated and control tumors grew equally. […] A T/C value<10% is considered to indicate highly significant anti-tumor activity, and is the level used by NCI to justify a clinical trial if toxicity, formulation, and certain other requirements are met (termed DN-2 level activity).
# (§7) Compounds as their sodium salts were prepared in a 1% sodium bicarbonate solution, H2O or phosphate buffered saline (PBS), with pH adjusted to 7.0 to 7.5 with HCl, and administered intravenously (IV) or orally (PO), at injection volumes of 0.2 mL per injection.
# Thus, for this test, all compounds initially were to be given IP, in an attempt to identify a suitable alternate route of administration.
# [2] = Water solubility noted on drug preparation for injection; type: physicochemical; settings: for Preparation: state of the injection preparation: white solid + 3% EtOH + 1% POE + 0.25% NaHCO3 + saline, pH = 8.0
# Procedure: as §7
# [3] = system: Mammary Adenocarcinoma 16/C; settings: IV
# Source text: as §1, §2, §3
# a) Tumor growth delay (T−C value), where T is the median time (in days) required for the treatment group tumors to reach a predetermined size (e.g., 1,000 mg), and C is the median time (in days) for the control group tumors to reach the same size. Tumor-free survivors were are excluded from these calculations (cures are tabulated separately).
# as §4, §5, §6, §7
# Human Melanoma LOX = settings: Cage 2; IV; qd 1–6, BID 7; total 700 mg/kg
# [4] = system: Pancreatic Ductal Adenocarcinoma #03; test: Evaluation against early stage Pancreatic Ductal Adenocarcinoma #03, BD1 female mice (Table 2); settings: PO
# [5] = Cage 2, IP, 135 mg/kg day 3 only
# [6] = Cage 3, IP, 80 mg/kg day 3 only
# [7] = Cage 4, 50 mg/kg IP day 3, then IV Q2d×7 through day 15, total 455 mg/kg
# [8] = IP d3 then IV Q2d: 5–15, total dosage 455 mg/kg, BDF1 males
# [9] = IP, d 3, total dosage 80 mg/kg, BDF1 males
# [10] = IP, d 3, total dosage 135 mg/kg, BDF1 males
# [11] = Cage 4, d1, 3–5, 7, 9, 11, 13, 15, total 1610 mg/kg
# [12] = Cage 5, d1, 3–7, 9, total 665 mg/kg
# [13] = Cage 8, 135 mg/kg IP day 3, then SC days 5, 7, 11, 13, 15, total 615 mg/kg
# [14] = Cage 9, IP, 80 mg/kg/inj days 3, 5, 7, 11, 13, 15, total 480 mg/kg
# [15] = Cage 10, IP, 50 mg/kg/inj Q2d×7 from day 3, total 350 mg/kg
# [16] = IP d 3 then SC d5, 7, 11, 13, 15, total dosage 615 mg/kg, BDF1 males
# [17] = IP, Q2d: 3–15, total dosage 350 mg/kg, BDF1 males
# [18] = IP, d3, 5, 7, 11, 13, 15, total dosage 480 mg/kg, BDF1 males
# [19] = Cage 3, BID3–7, total 2,300 mg/kg
# [20] = Cage 4, BID 3, 4, total 480 mg/kg
structure (smiles),measurement,setting,value
"CC(Oc1ccc(Oc2cnc3ccc(Cl)cc3n2)cc1)C(=O)NCC(=O)O [Compound 14i (R), {2-{4-(7-Chloro-quinoxalin-2-yloxy)-phenoxy}propionylamino}acetic acid]",Activity Rating,[1]; [5],+ (0.7–1.2)
same,T/C,[1]; [5],10%
same,log cell kill,[1]; [5],1.1
same,Activity Rating,[1]; [6],+ (0.7–1.2)
same,T/C,[1]; [6],37%
same,day of death,[1]; [6],4 days
same,deaths,[1]; [6],one injection death
same,log kill,[1]; [6],0.7
same,Activity Rating,[1]; [7],++ (1.3–1.9)
same,T/C,[1]; [7],10% and 8%
same,day of full weight recovery,[1]; [7],≤ 11 days
same,day of weight loss nadir,[1]; [7],7 days
same,log kill,[1]; [7],1.6
same,Comments (Active/Inactive),[1]; [8],Active
same,Comments (activity rating),[1]; [8],(++) (1.3–1.9)
same,Drug Death,[1]; [8],0/5
same,Log Cell Kill,[1]; [8],1.6
same,Median Tumor Burden in mg on d17,[1]; [8],151 mg
same,T-C,[1]; [8],11 days
same,T/C %,[1]; [8],8%
same,Time to 1000 mg,[1]; [8],26 days
same,Tumor Free on 148,[1]; [8],0/5
same,Comments (Active/Inactive),[1]; [9],Active
same,Comments (activity rating),[1]; [9],(+) (0.7–1.2)
same,Drug Death,[1]; [9],1/5
same,Drug Death (day of death),[1]; [9],(d4)
same,Log Cell Kill,[1]; [9],0.7
same,Median Tumor Burden in mg on d17,[1]; [9],675 mg
same,T-C,[1]; [9],5 days
same,T/C %,[1]; [9],37%
same,Time to 1000 mg,[1]; [9],20 days
same,Tumor Free on 148,[1]; [9],0/5
same,Comments (Active/Inactive),[1]; [10],Active
same,Comments (activity rating),[1]; [10],(+) (0.7–1.2)
same,Drug Death,[1]; [10],0/5
same,Log Cell Kill,[1]; [10],1.1
same,Median Tumor Burden in mg on d17,[1]; [10],189 mg
same,T-C,[1]; [10],7.5 days
same,T/C %,[1]; [10],10%
same,Time to 1000 mg,[1]; [10],22.5 days
same,Tumor Free on 148,[1]; [10],0/5
same,Day of Wt. Loss Nadir,"[1]; mouse, in vivo",7 days and 4 days
same,day of full weight recovery,"[1]; mouse, in vivo, ip, 135 mg/kg",≤ 9 days
same,day of weight loss nadir,"[1]; mouse, in vivo, ip, 135 mg/kg",7 days
same,toxicity observations,"[1]; mouse, in vivo, ip, 135 mg/kg",prolonged pain response
same,water solubility,[2],good water solubility
same,Preparation: state of the injection preparation,[2],"Compound 14i (R): white solid + 3% EtOH + 1% POE + 0.25% NaHCO3 + saline → solution (pH = 8.0); 0.5 ml/mouse/inj, IP; 0.2 ml/mouse/inj, IV."
CC(Oc1ccc(Oc2cnc3ccc(Cl)cc3n2)cc1)C(=O)NCCS(=O)(=O)[O-].[Na+] [Compound 14f (R)],Day of Wt. Loss Nadir,[3]; [11],14 days
same,Drug Death (day of death),[3]; [11],0/5
same,Log Cell Kill,[3]; [11],4.2
same,Mean Body Wt. Loss in g/mouse,[3]; [11],−0.8 g/mouse
same,Median Tumor Burden in mg on day 7 (range),[3]; [11],0 mg
same,Percent Body Weight Loss,[3]; [11],−3.0%
same,T-C,[3]; [11],14 days
same,T/C %,[3]; [11],0%
same,Time to 1000 mg in days (range),[3]; [11],20 days
same,Tumor Free on d28,[3]; [11],no cures and 0/5
same,day of full body weight recovery,[3]; [11],≤ 16 days
same,Day of Wt. Loss Nadir,[3]; [12],5 days
same,Drug Death (day of death),[3]; [12],0/5
same,Log Cell Kill,[3]; [12],1.8
same,Mean Body Wt. Loss in g/mouse,[3]; [12],−0.8 g/mouse
same,Median Tumor Burden in mg on day 7 (range),[3]; [12],260 mg
same,Percent Body Weight Loss,[3]; [12],−2.9%
same,T-C,[3]; [12],6 days
same,T/C %,[3]; [12],14%
same,Time to 1000 mg in days (range),[3]; [12],12 days
same,Tumor Free on d28,[3]; [12],0/5
same,Comments (activity rating),Human Melanoma LOX,(+) (0.7–1.2)
same,Drug Death (day of death),Human Melanoma LOX,no drug deaths and 0/5
same,Log Cell Kill,Human Melanoma LOX,0.8
same,Median Tumor Burden in mg on d 9 (range),Human Melanoma LOX,651 mg
same,T-C,Human Melanoma LOX,3.0 days
same,T/C %,Human Melanoma LOX,47%
same,Time to 1000 mg days (range),Human Melanoma LOX,11.0 days
same,Tumor Free on d 18,Human Melanoma LOX,0/5
"CC(Oc1ccc(Oc2ccc3ccc(Br)cc3n2)cc1)C(=O)NCC(=O)O [Compound 14h (R), {2-[4-(7-Bromo-quinolin-2-yloxy)-phenoxy]-propionylamino}acetic acid]",Activity Rating,[1]; [13],++ (1.3–1.9)
same,T/C,[1]; [13],3%
same,log cell kill,[1]; [13],1.9
same,T/C,[1]; [14],6%
same,log cell kill,[1]; [14],1.7
same,Activity Rating,[1]; [15],+ (0.7–1.2)
same,T/C,[1]; [15],16.5%
same,log kill,[1]; [15],1.0
same,Comments (Active/Inactive),[1]; [16],Inactive
same,Comments (activity rating),[1]; [16],(++) (1.3–1.9)
same,Drug Death,[1]; [16],0/5
same,Log Cell Kill,[1]; [16],1.9
same,Median Tumor Burden in mg on d17,[1]; [16],63 mg
same,T-C,[1]; [16],13 days
same,T/C %,[1]; [16],3%
same,Time to 1000 mg,[1]; [16],28 days
same,Tumor Free on 148,[1]; [16],0/5
same,Comments (Active/Inactive),[1]; [17],Active
same,Comments (activity rating),[1]; [17],(+) (0.7–1.2)
same,Drug Death,[1]; [17],0/5
same,Log Cell Kill,[1]; [17],1.0
same,Median Tumor Burden in mg on d17,[1]; [17],304 mg
same,T-C,[1]; [17],7 days
same,T/C %,[1]; [17],16.5%
same,Time to 1000 mg,[1]; [17],22 days
same,Tumor Free on 148,[1]; [17],0/5
same,Comments (Active/Inactive),[1]; [18],Active
same,Comments (activity rating),[1]; [18],(++) (1.3–1.9)
same,Drug Death,[1]; [18],0/5
same,Log Cell Kill,[1]; [18],1.7
same,Median Tumor Burden in mg on d17,[1]; [18],108 mg
same,T-C,[1]; [18],12 days
same,T/C %,[1]; [18],6%
same,Time to 1000 mg,[1]; [18],27 days
same,Tumor Free on 148,[1]; [18],0/5
same,Day of Wt. Loss Nadir,"[1]; mouse, in vivo",9 days and 10 days and 8 days
same,day of full weight recovery,"[1]; mouse, in vivo",20 days and 15 days
same,day of weight loss nadir,"[1]; mouse, in vivo",9 days and 10 days and 8 days
same,weight loss nadir,"[1]; mouse, in vivo",−13.3%
same,water solubility,[2],Low water solubility limits; also recorded: much lower water solubility
same,Preparation: state of the injection preparation,[2],"Compound 14h (R): white solid + 3% EtOH + 1% POE + 0.25% NaHCO3 + saline → suspension (pH = 8.0); 0.5 ml/mouse/inj, IP; 0.2 ml/mouse/inj, SC."
CNC(=O)C(C)Oc1ccc(Oc2cnc3ccc(Cl)cc3n2)cc1 (stereo not shown) [Compound 14b],water solubility,[2],water insoluble
same,Day of Wt. Loss Nadir,[4]; [19],8 days
same,Drug Deaths (day of death),[4]; [19],0/5
same,Growth Delay,[4]; [19],7.0 days
same,Log Cell Kill,[4]; [19],0.8
same,Mean Body Wt. Loss (g/mouse),[4]; [19],−2.0 g/mouse
same,Median Tumor Burden in mg on d18 (Range),[4]; [19],671 mg
same,T/C %,[4]; [19],39%
same,Time in days to 1000 mg (range),[4]; [19],21 days
same,Tumor Free on d 154,[4]; [19],0/5
same,day of full body weight recovery,[4]; [19],10 days
same,% Body Wt. Loss,[4]; [20],4%
same,Day of Wt. Loss Nadir,[4]; [20],5 days
same,Drug Deaths (day of death),[4]; [20],0/5
same,Growth Delay,[4]; [20],2.0 days
same,Log Cell Kill,[4]; [20],0.2
same,Mean Body Wt. Loss (g/mouse),[4]; [20],−0.8 g/mouse
same,Median Tumor Burden in mg on d18 (Range),[4]; [20],1266 mg
same,T/C %,[4]; [20],74%
same,Time in days to 1000 mg (range),[4]; [20],15 days
same,Tumor Free on d 154,[4]; [20],0/5
same,% Body Wt. Loss,"[4]; Cage 5, BID 3, total 108 mg/kg",0%
same,Day of Wt. Loss Nadir,"[4]; Cage 5, BID 3, total 108 mg/kg",5 days
same,Drug Deaths (day of death),"[4]; Cage 5, BID 3, total 108 mg/kg",0/5
same,Growth Delay,"[4]; Cage 5, BID 3, total 108 mg/kg",2.7 days
same,Log Cell Kill,"[4]; Cage 5, BID 3, total 108 mg/kg",0.3
same,Mean Body Wt. Loss (g/mouse),"[4]; Cage 5, BID 3, total 108 mg/kg",+0.4 g/mouse
same,Median Tumor Burden in mg on d18 (Range),"[4]; Cage 5, BID 3, total 108 mg/kg",1312 mg
same,T/C %,"[4]; Cage 5, BID 3, total 108 mg/kg",77%
same,Time in days to 1000 mg (range),"[4]; Cage 5, BID 3, total 108 mg/kg",15.7 days
same,Tumor Free on d 154,"[4]; Cage 5, BID 3, total 108 mg/kg",0/5
